# From patent US20180042919A1, “PARP Inhibitors for the Treatment of Major Depressive Disorder and Related Conditions” (East Tennessee State University Research Foundation, priority 2016, published 2018)
# Experiments:
# Assay type in all cases: in vivo, rat
# Male Sprague-Dawley rats [1] = experiment: Porsolt swim test (forced swim stress test)
# Description: Laboratory Animals: The use of animals for this study was approved by the University Committee on Animal Care at East Tennessee State University. All rats were ordered from Envigo, Inc. (Indianapolis, Ind., USA). Male Sprague-Dawley rats (225-250 g upon arrival) were used as subjects in the Porsolt swim test and were socially housed in groups of 2-3 per cage. Rats used as ‘intruders’ in the social defeat paradigm were individually housed and provided enrichment per the NIH Guidelines for the Care and Use of Animals. Intruder rats were male Sprague-Dawley rats (225-250 g). In addition, a total of 14 female Sprague-Dawley rats weighing 175-199 g upon arrival were obtained for the social defeat paradigm and these rats were socially housed for 6 days in the animal colony prior to fallopian tube ligature, performed as previously described. (Szebeni et al., 2016). Sixteen male Long-Evans hooded rats weighing 250-275 g upon arrival were used as ‘residents’ in the social defeat paradigm. A climate-controlled vivarium was utilized and animals were kept on a 12 h on/12 off light/dark cycle. Porsolt swim test: Different groups of animals were tested in the Porsolt swim test. Rats were treated using the same drug treatment regimen as with the SDS/CUS paradigm, except as noted in the combined drug treatments as noted in the Results. On the eighth day of drug treatment, all animals began behavioral testing in the Porsolt swim test, also known as the forced swim stress test. All animals were tested in black cylinders measuring 36 cm in diameter, and these cylinders were filled with water of 23-25° C. following procedures as reviewed previously (Bogdanova et al., 2013), consistent with the original procedure of Porsolt and coworkers (Porsolt et al., 1978). All animals were given a pre-swim exposure test on the first day of testing, 24 h before the swim test session the following day. On the first day of testing, animals were exposed to the water for 15 min, and on the second day were given a 5 min trial. The two dependent measures used for forced swim stress was the latency to first immobility episode (immobility lasting >5 s) and the total immobility time over the 5 min period, both recorded on the second day of testing. All movements of the animal were recorded by behavioral scanning software (ANY-maze, Stoelting Co., Wood Dale, Ill., USA). Drug administration: All drugs used in the study, 3-aminobenzamide (Product no. A0788; 3-AB), 5-AIQ hydrochloride (Product no. […] F132), were obtained from Sigma-Aldrich, Inc. (St. Louis, Mo., USA). Statistical analysis: A Grubb's test was used to remove statistical outliers from each dataset prior to analyses. Statistical analyses were otherwise performed as indicated using IBM SPSS Statistics (version 23.0) and data were graphed using GraphPad Prism (version 5.0b, GraphPad Software, La Jolla, Calif.). An independent sample t-test was used to analyze data generated when only two groups were analyzed. An analysis of variance (ANOVA) was used to test multiple group comparisons. For post hoc statistical comparisons, a Bonferroni-correction was applied (as noted) to limit Type I error in multiple post-hoc comparisons. For the combined drug treatment experiment, ANOVA was followed by a Dunnett's Multiple Comparison test that focused comparisons of drug treatment groups to the vehicle control group. All data are expressed as mean±standard error of the mean.
# Male Sprague-Dawley rats [2] = experiment: Sucrose preference in rats exposed to repeated social defeat stress plus chronic unpredictable stress; conditions: 2 h prior to social defeat, vs stressed rats treated with vehicle
# Procedure: (§1) Social Defeat Stress (SDS): SDS was induced as described previously (Covington and Miczek, 2001; Szebeni et al., 2016). Briefly, Long-Evans hooded rats (‘residents’) were each mated with a female (ligated) rat for a 7-day period. On the eighth day and after removal of the female, an ‘intruder’ rat was placed into the cage for a 5 min period and dominance was established by the resident. Defeat was produced between 0900 and 1000 h daily for 10 consecutive days. Control rats not exposed to defeat were handled each day during this same time period.
# (§2) Chronic unpredictable stress (CUS): CUS was performed after SDS on the same day, but at random times either during the day or evening as previously described (Bondi et al., 2008; Szebeni et al., 2016). Different stressors were randomly arranged and occurred at random times during the light or dark cycle of each day for 10 consecutive days. […]
# Sucrose Preference: Sucrose preference was performed during the final three days of induction of social defeat stress (days 8-10), using a procedure based on that of D'Aquila et al. (1997). […] Amounts of sucrose consumed were calculated as percentages of the total amount of fluid consumed during the 2 h period on each of the 3 days of testing. […] The preference of sucrose over water was used as a measure of animal's sensitivity to reward and expressed as a percent. […]
# Male Sprague-Dawley rats [3] = experiment: Social interaction test in rats exposed to repeated social defeat stress plus chronic unpredictable stress
# Procedure: as §1
# as §2, with “days. All rats were exposed twice to each of 5 different stressors, which included a 30-min restraint, a 1-h shaking/crowding, 10-min cold water (18° C.) swim, a 15-min warm water swim (25° C.) and a 24-h tipped cage.” for “days.”
# Social interaction test: The social interaction test was performed 24 h after the last social defeat stress on day 11 of behavioral testing. […] The amount of time spent in a defined interaction zone close to the metal divider was measured using ANYmaze video tracking (Stoelting Co., Wood Dale Ill., USA). […]
# [4] = third experiment, 4 mg/kg i.p. 3 times over 24 h, alone, Dunnett's test vs vehicle
# [5] = third experiment, 2.5 mg/kg i.p. 3 times over 24 h, alone, Dunnett's test vs vehicle
structure (smiles),measurement,setting,value
"NC(=O)c1cccc(N)c1 [3-AB, 3-aminobenzamide]",time spent immobile,"Male Sprague-Dawley rats [1]; preliminary experiment, 40 mg/kg i.p. daily for 10 days, 2 h after injection, vs saline-treated controls, t=2.36, p<0.05",significantly decreased
same,latency to immobility,"Male Sprague-Dawley rats [1]; preliminary experiment, 40 mg/kg i.p. daily for 10 days, 2 h after injection, vs saline-treated controls, t=5.56, p<0.001",significant increase
same,latency to immobility,"Male Sprague-Dawley rats [1]; second experiment, 0.4 mg/kg i.p. once daily for 10 days, vs vehicle control group",did not significantly differ
same,latency to immobility,"Male Sprague-Dawley rats [1]; second experiment, 4 mg/kg i.p. once daily for 10 days, vs vehicle control group",did not significantly differ
same,latency to immobility,"Male Sprague-Dawley rats [1]; second experiment, 40 mg/kg i.p. injections 23.5, 5 and 1 h before testing (3-AB×3), vs vehicle control group",did not significantly differ
same,immobility time,"Male Sprague-Dawley rats [1]; second experiment, 40 mg/kg i.p. injections 23.5, 5 and 1 h before testing (3-AB×3), vs vehicle group",significantly less time immobile
same,immobility time,"Male Sprague-Dawley rats [1]; second experiment, 40 mg/kg i.p. once daily for 10 days, vs vehicle group",significantly less time immobile
same,latency to immobility,"Male Sprague-Dawley rats [1]; second experiment, 40 mg/kg i.p. once daily for 10 days, vs vehicle-treated control rats",significantly greater
same,immobility time,Male Sprague-Dawley rats [1]; [4],did not significantly affect
same,latency to immobility,Male Sprague-Dawley rats [1]; [4],did not significantly affect
same,sucrose preference,"Male Sprague-Dawley rats [2]; 40 mg/kg i.p. daily for 10 days, p=0.024",significantly higher
same,time spent in the interaction zone,"Male Sprague-Dawley rats [3]; 40 mg/kg i.p. daily for 10 days, vs vehicle-treated rats exposed to stressors, p=0.014",significantly greater
"Nc1cccc2c(=O)[nH]ccc12 [5-AIQ, 5-aminoisoquinolinone]",latency to immobility,"Male Sprague-Dawley rats [1]; second experiment, 0.3 mg/kg i.p. once daily for 10 days, vs vehicle control group",did not significantly differ
same,immobility time,"Male Sprague-Dawley rats [1]; second experiment, 0.3 mg/kg i.p. once daily for 10 days, vs vehicle group",significantly less time immobile
CNCCC(Oc1ccc(C(F)(F)F)cc1)c1ccccc1 (centres unmarked) [fluoxetine],immobility time,"Male Sprague-Dawley rats [1]; second experiment, 10 mg/kg i.p. injections 23.5, 5 and 1 h before testing, vs vehicle group",significantly less time immobile
same,latency to immobility,"Male Sprague-Dawley rats [1]; second experiment, 10 mg/kg i.p. injections 23.5, 5 and 1 h before testing, vs vehicle-treated control rats",significantly greater
same,immobility time,Male Sprague-Dawley rats [1]; [5],did not significantly affect
same,latency to immobility,Male Sprague-Dawley rats [1]; [5],did not significantly affect
same,sucrose preference,"Male Sprague-Dawley rats [2]; 10 mg/kg i.p. daily for 10 days, p=0.005",significantly higher
same,time spent in the interaction zone,"Male Sprague-Dawley rats [3]; 10 mg/kg i.p. daily for 10 days, difference vs vehicle-treated rats exposed to stress, appeared greater, p=0.073",did not reach statistical significance
